Measurements published in US20110144160A1, “Antagonists of Prostaglandin D2 Receptors” (Amira Pharmaceuticals, Inc., priority 2008, published 2011).

Tests used:
human DP2 receptor = molecular target: T1, human DP2 receptor (Homo sapiens, UniProt Q9Y5Y4); assay: DP2/CRTH2 binding assay ([3H]PGD2 radioligand); conditions: membranes of HEK293 cells expressing recombinant human DP2, 1 nM [3H]PGD2; read-out: hDP2
T1 construct: expressed in transfected cells
T1 sequence (Q9Y5Y4 1-395): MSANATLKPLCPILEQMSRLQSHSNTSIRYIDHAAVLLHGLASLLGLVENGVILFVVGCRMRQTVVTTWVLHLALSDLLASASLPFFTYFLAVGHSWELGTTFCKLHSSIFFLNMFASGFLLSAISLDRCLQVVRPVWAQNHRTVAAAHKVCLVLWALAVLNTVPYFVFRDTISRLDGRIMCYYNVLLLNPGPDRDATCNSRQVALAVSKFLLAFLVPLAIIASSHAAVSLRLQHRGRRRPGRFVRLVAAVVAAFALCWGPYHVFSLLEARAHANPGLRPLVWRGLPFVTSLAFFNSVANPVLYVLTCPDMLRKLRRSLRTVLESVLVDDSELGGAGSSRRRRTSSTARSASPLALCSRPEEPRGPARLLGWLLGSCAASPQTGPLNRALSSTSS
Protocol: The ability of a compound to bind to the human DP2 receptor is assessed via a radioligand binding assay using [^3H]PGD2. HEK293 cells stably expressing recombinant human DP2 are resuspended in 10 mM Hepes, 7.4 containing 1 mM DTT, lysed and centrifuged at 75,000×g to pellet the membranes. The membranes are resuspended in 10 mM Hepes, 7.4 containing 1 mM DTT and 10% glycerol to approximately 5 mg protein/ml. Membranes (2-10 μg protein/well) are incubated in 96-well plates with 1 nM [^3H]PGD2 and test compound in Assay Buffer (50 mM Hepes, 10 mM MnCl2, 1 mM EDTA, plus or minus 0.2% human serum albumin, pH 7.4) for 60 minutes at room temperature. The reactions are terminated by rapid filtration through Whatman GF/C glass fibre filter plates. The filter plates were pre-soaked in 0.33% polythylenimine for 30 minutes at room temperature then washed in Wash Buffer (50 mM Hepes, 0.5 M NaCl pH 7.4) prior to harvesting. After harvesting, the filter plates are washed 3 times with 1 ml cold Wash Buffer then dried. Scintillant is then added to the plates and the radioactivity retained on the filters is determined on a Packard TopCount (Perkin Elmer). Specific binding is determined as total radioactive binding minus non-specific binding in the presence of 10 μM PGD2. IC50s were determined using GraphPad prism analysis of drug titration curves.

human DP1 receptor = molecular target: T2, human DP1 receptor (Homo sapiens, UniProt Q13258); assay: DP1 binding assay ([3H]BWA868C radioligand); conditions: human platelet membranes, 2 nM [3H]BWA868C; read-out: hDP1
T2 construct: tissue Biological Specialty Corporation; host or cells: human platelets, membrane preparation
T2 sequence (Q13258 1-359): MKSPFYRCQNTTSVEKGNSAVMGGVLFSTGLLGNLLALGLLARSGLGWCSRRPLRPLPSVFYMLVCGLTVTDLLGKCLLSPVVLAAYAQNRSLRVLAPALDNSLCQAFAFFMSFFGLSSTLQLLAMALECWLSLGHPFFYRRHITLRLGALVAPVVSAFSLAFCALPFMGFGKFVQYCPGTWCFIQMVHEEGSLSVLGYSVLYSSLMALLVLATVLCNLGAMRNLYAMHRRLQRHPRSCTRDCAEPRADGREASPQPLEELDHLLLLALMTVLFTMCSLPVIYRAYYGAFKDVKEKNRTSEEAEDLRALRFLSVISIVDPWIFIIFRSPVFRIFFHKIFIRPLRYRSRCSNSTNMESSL
Protocol: The ability of a compound to bind to the human DP1 receptor was evaluated via a radioligand membrane binding assay using the DP1 selective synthetic ligand [^3H]BWA868C. Packed human platelets (Biological Specialty Corporation), were resuspended in 6 volumes of Hepes/HBSS buffer (10 mM Hepes, 1 mM DTT in Hanks Balanced Salt Solution (HBSS), lysed and centrifuged at 75,000×g to pellet the membranes. Membranes were resuspended in Hepes/HBSS buffer to approximately 12 mg protein/ml. Membranes (20 μg protein/well) are incubated in 96-well plates with 2 nM [^3H]BWA868C and test compound in Assay Buffer (50 mM Hepes, 10 mM MnCl2, 1 mM EDTA, plus or minus 0.2% human serum albumin, pH 7.4) for 60 minutes at room temperature. The reactions are terminated by rapid filtration through Whatman GF/C glass fibre filter plates. The filter plates were pre-soaked in 0.33% polethylenimine for 30 minutes at room temperature then washed in Wash Buffer (50 mM Hepes, 0.5 M NaCl pH 7.4) prior to harvesting. After harvesting, the filter plates are washed 3 times with 1 ml cold Wash Buffer then dried. Scintillant is then added to the plates and the radioactivity retained on the filters is determined on a Packard TopCount (Perkin Elmer). Specific binding is determined as total radioactive binding minus non-specific binding in the presence of 10 μM BW A868C. IC50s were determined using GraphPad prism analysis of drug titration curves.

| Compound | IC50 (human DP2 receptor) [nM] | IC50 (human DP1 receptor) [nM] |
| --- | --- | --- |
| COc1ccc(CC(=O)O)cc1Oc1ccc(NC(=O)c2ccc(Cl)cc2)cc1CSCc1ccccc1 [Compound 18, {3-[2-Benzylsulfanylmethyl-4-(4-chloro-benzoylamino)-phenoxy]-4-methoxy-phenyl}-acetic acid] | < 300 | < 300 |
| COc1ccc(CC(=O)O)cc1Oc1ccc(NC(=O)c2ccc(Cl)cc2)cc1CSc1nnc(C)s1 [Compound 19, {3-[4-(4-Chloro-benzoylamino)-2-(5-methyl-[1,3,4]thiadiazol-2-ylsulfanylmethyl)-phenoxy]-4-methoxy-phenyl}-acetic acid] | < 300 | > 1000 |
| CC(C)(C)C(=O)Nc1ccc(Oc2cc(CC(=O)O)cc(C(F)(F)F)c2)c(CSCC(F)(F)F)c1 [Compound 32, {3-[4-(2,2-Dimethyl-propionylamino)-2-(2,2,2-trifluoro-ethylsulfanylmethyl)-phenoxy]-5-trifluoromethyl-phenyl}-acetic acid] | < 300 | > 1000 |
| COc1ccc(CC(=O)O)cc1Oc1ccc(N2CCNC2=O)cc1CSCC(F)(F)F [Compound 57, {4-Methoxy-3-[4-(2-oxo-imidazolidin-1-yl)-2-(2,2,2-trifluoro-ethylsulfanylmethyl)-phenoxy]-phenyl}-acetic acid] | 300 to 1000 | > 1000 |
| COc1ccc(CC(=O)O)cc1Oc1ccc(NC(=O)c2ccccc2)cc1CSC(C)(C)C [Compound 58, [3-(4-benzoylamino-2-tert-butylsulfanylmethyl-phenoxy)-4-methoxy-phenyl]-acetic acid] | < 300 | < 300 |
| COc1ccc(CC(=O)O)cc1Oc1ccc(NC(=O)c2cccc(F)c2)cc1CSC(C)(C)C [Compound 62, {3-[2-tert-Butylsulfanylmethyl-4-(3-fluoro-benzoylamino)-phenoxy]-4-methoxy-phenyl}-acetic acid] | < 300 | < 300 |
| COc1ccc(CC(=O)O)cc1Oc1ccc(NC(=O)c2ccc(F)cc2)cc1CSC(C)(C)C [Compound 63, {3-[2-tert-Butylsulfanylmethyl-4-(4-fluoro-benzoylamino)-phenoxy]-4-methoxy-phenyl}-acetic acid] | < 300 | < 300 |
| COc1ccc(CC(=O)O)cc1Oc1ccc(NC(=O)c2ccccc2F)cc1CSC(C)(C)C [Compound 64, {3-[2-tert-Butylsulfanylmethyl-4-(2-fluoro-benzoylamino)-phenoxy]-4-methoxy-phenyl}-acetic acid] | < 300 | < 300 |
| COc1ccc(CC(=O)O)cc1Oc1ccc(NC(=O)c2cc(F)cc(F)c2)cc1CSC(C)(C)C [Compound 67, {3-[2-tert-Butylsulfanylmethyl-4-(3,5-difluoro-benzoylamino)-phenoxy]-4-methoxy-phenyl}-acetic acid] | < 300 | < 300 |
| COc1ccc(CC(=O)O)cc1Oc1ccc(NC(=O)c2cccc(C(F)(F)F)c2)cc1CSCC(F)(F)F [Compound 68, {4-methoxy-3-[2-(2,2,2-trifluoro-ethylsulfanylmethyl)-4-(3-trifluoromethyl-benzoylamino)-phenoxy]-phenyl}-acetic acid] | < 300 | < 300 |
| COc1ccc(CC(=O)O)cc1Oc1ccc(NC(=O)c2ccc(C(F)(F)F)cc2)cc1CSCC(F)(F)F [Compound 69, {4-methoxy-3-[2-(2,2,2-trifluoro-ethylsulfanylmethyl)-4-(4-trifluoromethyl-benzoylamino)-phenoxy]-phenyl}-acetic acid] | < 300 | < 300 |
| COc1ccc(CC(=O)O)cc1Oc1ccc(NC(=O)c2cccnc2)cc1CSCC(F)(F)F [Compound 70, {4-methoxy-3-[4-[(pyridine-3-carbonyl)-amino]-2-(2,2,2-trifluoro-ethylsulfanylmethyl)-phenoxy]-phenyl}-acetic acid] | < 300 | 300 to 1000 |
| COc1ccc(CC(=O)O)cc1Oc1ccc(NC(=O)c2ccncc2)cc1CSCC(F)(F)F [Compound 71, {4-methoxy-3-[4-[(pyridine-4-carbonyl)-amino]-2-(2,2,2-trifluoro-ethylsulfanylmethyl)-phenoxy]-phenyl}-acetic acid] | < 300 | 300 to 1000 |

The remaining lines, values ahead:

| IC50 (human DP2 receptor) [nM] | IC50 (human DP1 receptor) [nM] | Compound |
| --- | --- | --- |
| < 300 | > 1000 | CC(C)SCc1cc(NC(=O)C(C)(C)C)ccc1Oc1cc(Cl)cc(CC(=O)O)c1 [Compound 30, {3-Chloro-5-[4-(2,2-dimethyl-propionylamino)-2-isopropylsulfanylmethyl-phenoxy]-phenyl}-acetic acid] |
| < 300 | < 300 | CC(C)(C)SCc1cc(NC(=O)C(C)(C)C)ccc1Oc1cc(CC(=O)O)ccc1Cl [Compound 59, {3-[2-tert-Butylsulfanylmethyl-4-(2,2-dimethyl-propionylamino)-phenoxy]-4-chloro-phenyl}-acetic acid] |
| < 300 | < 300 | CC(C)(C)SCc1cc(NC(=O)c2ccc(Cl)cc2)ccc1Oc1cc(CC(=O)O)ccc1Cl [Compound 60, {3-[2-tert-Butylsulfanylmethyl-4-(4-chloro-benzoylamino)-phenoxy]-4-chloro-phenyl}-acetic acid] |
| < 300 | < 300 | CC(C)C(=O)Nc1ccc(Oc2cc(CC(=O)O)ccc2Cl)c(CSC(C)(C)C)c1 [Compound 61, [3-(2-tert-Butylsulfanylmethyl-4-isobutyrylamino-phenoxy)-4-chloro-phenyl]-acetic acid] |
| < 300 | < 300 | COc1ccc(CC(=O)O)cc1Oc1ccc(NC(=O)c2ccc(Cl)cc2Cl)cc1CSC(C)(C)C [Compound 65, {3-[2-tert-Butylsulfanylmethyl-4-(2,4-dichloro-benzoylamino)-phenoxy]-4-methoxy-phenyl}-acetic acid] |
| < 300 | < 300 | COc1ccc(CC(=O)O)cc1Oc1ccc(NC(=O)c2cc(Cl)cc(Cl)c2)cc1CSC(C)(C)C [Compound 66, {3-[2-tert-Butylsulfanylmethyl-4-(3,5-dichloro-benzoylamino)-phenoxy]-4-methoxy-phenyl}-acetic acid] |
| < 300 | < 300 | COc1ccc(CC(=O)O)cc1Oc1ccc(NC(=O)C(C)(C)C)cc1C[S+]([O-])C(C)(C)C (centres unmarked) [Compound 73, {3-[4-(2,2-Dimethyl-propionylamino)-2-(2-methyl-propane-2-sulfinylmethyl)-phenoxy]-4-methoxy-phenyl}-acetic acid] |
| < 300 | < 300 | COc1ccc(CC(=O)O)cc1Oc1ccc(NC(=O)C(C)(C)C)cc1CS(=O)(=O)C(C)(C)C [Compound 74, {3-[4-(2,2-Dimethyl-propionylamino)-2-(2-methyl-propane-2-sulfonylmethyl)-phenoxy]-4-methoxy-phenyl}-acetic acid] |
| < 300 | < 300 | CC(C)(C)SCc1cc(NC(=O)C(C)(C)C)ccc1Oc1cc(CC(=O)O)ccc1O [Compound 75, {3-[2-tert-Butylsulfanylmethyl-4-(2,2-dimethyl-propionylamino)-phenoxy]-4-hydroxy-phenyl}-acetic acid] |
